Experimental data reported in patent publication US20230398130A1, “METHODS AND COMPOSITIONS FOR DIFFERENTIATING STEM CELLS” (Massachusetts Institute of Technology, priority 2020, published 2023).

What was measured:
[1] = system: ISC-enriched organoids; assay: Primary screen, 384-well 2.5-D organoid differentiation (ENR+CD, 6 days, Target Selective Inhibitor Library, vs whole-plate median): ATP (CellTiter-Glo 3D, CTG); details: for Dose.FC.CTG (log 2 fold change): vs plate median; for Dose.FC.CTG: FC vs plate median; for Z.CTG: standard z score of FC
[2] = system: ISC-enriched organoids; assay: Primary screen, 384-well 2.5-D organoid differentiation (ENR+CD, 6 days): basal lysozyme secretion (LYZ.NS); format: cell-based, murine; details: for Dose.FC.LYZ.NS (log 2 fold change): vs plate median; for Dose.FC.LYZ.NS: FC vs plate median; for Z.LYZ.NS: standard z score of FC
Excerpt: (§1) High-throughput screening.

[3] = system: ISC-enriched organoids; assay: Primary screen, 384-well 2.5-D organoid differentiation (ENR+CD, 6 days): carbachol-induced lysozyme secretion (LYZ.S); format: cell-based, murine; details: for Dose.FC.LYZ.S (log 2 fold change): vs plate median; for Dose.FC.LYZ.S: FC vs plate median
Excerpt: as §1

SMILES	Dose.FC.CTG ([1]; Dose 0.08 uM, primary screen)	Z.CTG ([1]; Dose 0.08 uM)	Dose.FC.CTG ([1]; Dose 0.40 uM, primary screen)	Z.CTG ([1]; Dose 0.40 uM)	Dose.FC.CTG ([1]; Dose 2.00 uM, primary screen)	Z.CTG ([1]; Dose 2.00 uM)	Dose.FC.CTG ([1]; Dose 10.00 uM, primary screen)	Z.CTG ([1]; Dose 10.00 uM)	Dose.FC.LYZ.NS ([2]; Dose 0.08 uM, primary screen)	Z.LYZ.NS ([2]; Dose 0.08 uM)	Dose.FC.LYZ.NS ([2]; Dose 0.40 uM, primary screen)	Z.LYZ.NS ([2]; Dose 0.40 uM)	Dose.FC.LYZ.NS ([2]; Dose 2.00 uM, primary screen)	Z.LYZ.NS ([2]; Dose 2.00 uM)	Dose.FC.LYZ.NS ([2]; Dose 10.00 uM, primary screen)	Z.LYZ.NS ([2]; Dose 10.00 uM)	Dose.FC.LYZ.S ([3]; Dose 0.08 uM, primary screen)	Dose.FC.LYZ.S ([3]; Dose 0.40 uM, primary screen)	Dose.FC.LYZ.S ([3]; Dose 2.00 uM, primary screen)	Dose.FC.LYZ.S ([3]; Dose 10.00 uM, primary screen)	other results
Cn1cnc2c(F)c(Nc3ccc(Br)cc3Cl)c(C(=O)NOCCO)cc21 [Selumetinib (AZD6244)]																					Z.CTG (standard z score) ([1]; Dose 0.08 uM, primary screen): 0.393; Dose.FC.CTG (log 2 fold change) ([1]; Dose 0.08 uM, primary screen): 0.164; Z.CTG (standard z score) ([1]; Dose 0.40 uM, primary screen): −0.395; Dose.FC.CTG (log 2 fold change) ([1]; Dose 0.40 uM, primary screen): −0.165; Z.CTG (standard z score) ([1]; Dose 2.00 uM, primary screen): −0.613; Dose.FC.CTG (log 2 fold change) ([1]; Dose 2.00 uM, primary screen): −0.257; Z.CTG (standard z score) ([1]; Dose 10.00 uM, primary screen): −2.035; Dose.FC.CTG (log 2 fold change) ([1]; Dose 10.00 uM, primary screen): −0.852; Z.LYZ.NS (standard z score) ([2]; Dose 0.08 uM, primary screen): 0.181; Dose.FC.LYZ.NS (log 2 fold change) ([2]; Dose 0.08 uM, primary screen): 0.021; Z.LYZ.NS (standard z score) ([2]; Dose 0.40 uM, primary screen): −0.188; Dose.FC.LYZ.NS (log 2 fold change) ([2]; Dose 0.40 uM, primary screen): −0.022; Z.LYZ.NS (standard z score) ([2]; Dose 2.00 uM, primary screen): −0.847; Dose.FC.LYZ.NS (log 2 fold change) ([2]; Dose 2.00 uM, primary screen): −0.097; Z.LYZ.NS (standard z score) ([2]; Dose 10.00 uM, primary screen): −1.220; Dose.FC.LYZ.NS (log 2 fold change) ([2]; Dose 10.00 uM, primary screen): −0.140; Dose.FC.LYZ.S (log 2 fold change) ([3]; Dose 0.08 uM, primary screen): 0.004; Dose.FC.LYZ.S (log 2 fold change) ([3]; Dose 0.40 uM, primary screen): −0.047; Dose.FC.LYZ.S (log 2 fold change) ([3]; Dose 2.00 uM, primary screen): −0.175; Dose.FC.LYZ.S (log 2 fold change) ([3]; Dose 10.00 uM, primary screen): −0.211
FC(F)(F)c1ccc(/C=C/c2nc(COc3ccc(CCCCn4ccnn4)cc3)co2)cc1 [Mubritinib (TAK 165)]	−0.524 log 2 fold change	−1.252	−0.340 log 2 fold change	−0.812	−0.530 log 2 fold change	−1.265	−0.519 log 2 fold change	−1.240	−0.057 log 2 fold change	−0.500	−0.194 log 2 fold change	−1.687	−0.224 log 2 fold change	−1.950	−0.240 log 2 fold change	−2.092	−0.119 log 2 fold change	−0.154 log 2 fold change	−0.299 log 2 fold change	−0.294 log 2 fold change	
CCCCCCCCCCCCCCCCn1cc[n+](Cc2ccccc2)c1C.[I-] [NH125]	−0.347 log 2 fold change	−0.829	−0.508 log 2 fold change	−1.213	−1.106 log 2 fold change	−2.641	−1.787 log 2 fold change	−4.268	−0.035 log 2 fold change	−0.301	−0.188 log 2 fold change	−1.634	−0.219 log 2 fold change	−1.904	−0.263 log 2 fold change	−2.293	−0.114 log 2 fold change	−0.237 log 2 fold change	−0.358 log 2 fold change	−0.374 log 2 fold change	
c1ccc(CNc2nc(NCc3ccccc3)c3ccccc3n2)cc1 [DBeQ]		0.285		−0.031		0.010		−2.706		0.844		0.558		−0.414		−2.577					Dose.FC.CTG ([1]; Dose 0.08 uM, ENR+CD, 6 days): 0.119 log 2 fold change; Dose.FC.CTG ([1]; Dose 0.40 uM, ENR+CD, 6 days): −0.013 log 2 fold change; Dose.FC.CTG ([1]; Dose 2.00 uM, ENR+CD, 6 days): 0.004 log 2 fold change; Dose.FC.CTG ([1]; Dose 10.00 uM, ENR+CD, 6 days): −1.133 log 2 fold change; Dose.FC.LYZ.NS ([2]; Dose 0.08 uM, ENR+CD, 6 days): 0.097 log 2 fold change; Dose.FC.LYZ.NS ([2]; Dose 0.40 uM, ENR+CD, 6 days): 0.064 log 2 fold change; Dose.FC.LYZ.NS ([2]; Dose 2.00 uM, ENR+CD, 6 days): −0.048 log 2 fold change; Dose.FC.LYZ.NS ([2]; Dose 10.00 uM, ENR+CD, 6 days): −0.296 log 2 fold change; Dose.FC.LYZ.S ([3]; Dose 0.08 uM, ENR+CD, 6 days): 0.045 log 2 fold change; Dose.FC.LYZ.S ([3]; Dose 0.40 uM, ENR+CD, 6 days): 0.210 log 2 fold change; Dose.FC.LYZ.S ([3]; Dose 2.00 uM, ENR+CD, 6 days): −0.103 log 2 fold change; Dose.FC.LYZ.S ([3]; Dose 10.00 uM, ENR+CD, 6 days): −0.423 log 2 fold change
